The conditions of data set [1]: 121 C for 10 min heat step; cited from earlier work.
Data set [2] has as its system E. coli. In kind it is cell-based. To be noted: purified microcin J25 added to cellular reactions, E. coli cell death. The procedure: (A) Cell-free assay of mccj25 activity. […] (B) Inhibition of E. coli in vivo growth by purified microcin J25. Data, final concentrations.
It is seen in FIG. 7B that adding purified microcin J25 to cellular reactions causes cell death with a MIC of 0.1 uM. If microcin J25 produced in cell-free systems is at high enough concentration, those skilled in the art will recognize that the MIC curve for killing live E. coli will be the similar. However, avoiding phage in the reaction is essential to ensure that the MIC is accurate and not caused by propogation of infecting phage carried over in a typical cell-free reaction that is contaminated with phage.

In data set [3] the target is T1, E. coli RNA polymerase (Escherichia coli, UniProt P0A8T7+P0A8V2). Type of data set: biochemical. Also noted: endogenous in cells; host or cells: E. coli cell-free lysate (extract eZS6 or eAC15, prepared per Sun et al. 2013). To be noted: lasso cluster co-expressed with sigma70 GFP reporter in E. coli cell-free system.
T1 sequence (P0A7Z4 whole entry): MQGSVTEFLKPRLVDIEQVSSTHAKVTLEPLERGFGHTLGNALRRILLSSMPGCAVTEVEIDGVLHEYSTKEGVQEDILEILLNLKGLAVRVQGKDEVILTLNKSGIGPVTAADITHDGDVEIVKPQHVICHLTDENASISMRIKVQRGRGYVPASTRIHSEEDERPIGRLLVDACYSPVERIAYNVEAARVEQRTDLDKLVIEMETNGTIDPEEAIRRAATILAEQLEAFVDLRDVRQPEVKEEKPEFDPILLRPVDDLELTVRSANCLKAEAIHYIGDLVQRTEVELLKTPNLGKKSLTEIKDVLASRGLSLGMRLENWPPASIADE
T1 sequence (P0A8V2 whole entry): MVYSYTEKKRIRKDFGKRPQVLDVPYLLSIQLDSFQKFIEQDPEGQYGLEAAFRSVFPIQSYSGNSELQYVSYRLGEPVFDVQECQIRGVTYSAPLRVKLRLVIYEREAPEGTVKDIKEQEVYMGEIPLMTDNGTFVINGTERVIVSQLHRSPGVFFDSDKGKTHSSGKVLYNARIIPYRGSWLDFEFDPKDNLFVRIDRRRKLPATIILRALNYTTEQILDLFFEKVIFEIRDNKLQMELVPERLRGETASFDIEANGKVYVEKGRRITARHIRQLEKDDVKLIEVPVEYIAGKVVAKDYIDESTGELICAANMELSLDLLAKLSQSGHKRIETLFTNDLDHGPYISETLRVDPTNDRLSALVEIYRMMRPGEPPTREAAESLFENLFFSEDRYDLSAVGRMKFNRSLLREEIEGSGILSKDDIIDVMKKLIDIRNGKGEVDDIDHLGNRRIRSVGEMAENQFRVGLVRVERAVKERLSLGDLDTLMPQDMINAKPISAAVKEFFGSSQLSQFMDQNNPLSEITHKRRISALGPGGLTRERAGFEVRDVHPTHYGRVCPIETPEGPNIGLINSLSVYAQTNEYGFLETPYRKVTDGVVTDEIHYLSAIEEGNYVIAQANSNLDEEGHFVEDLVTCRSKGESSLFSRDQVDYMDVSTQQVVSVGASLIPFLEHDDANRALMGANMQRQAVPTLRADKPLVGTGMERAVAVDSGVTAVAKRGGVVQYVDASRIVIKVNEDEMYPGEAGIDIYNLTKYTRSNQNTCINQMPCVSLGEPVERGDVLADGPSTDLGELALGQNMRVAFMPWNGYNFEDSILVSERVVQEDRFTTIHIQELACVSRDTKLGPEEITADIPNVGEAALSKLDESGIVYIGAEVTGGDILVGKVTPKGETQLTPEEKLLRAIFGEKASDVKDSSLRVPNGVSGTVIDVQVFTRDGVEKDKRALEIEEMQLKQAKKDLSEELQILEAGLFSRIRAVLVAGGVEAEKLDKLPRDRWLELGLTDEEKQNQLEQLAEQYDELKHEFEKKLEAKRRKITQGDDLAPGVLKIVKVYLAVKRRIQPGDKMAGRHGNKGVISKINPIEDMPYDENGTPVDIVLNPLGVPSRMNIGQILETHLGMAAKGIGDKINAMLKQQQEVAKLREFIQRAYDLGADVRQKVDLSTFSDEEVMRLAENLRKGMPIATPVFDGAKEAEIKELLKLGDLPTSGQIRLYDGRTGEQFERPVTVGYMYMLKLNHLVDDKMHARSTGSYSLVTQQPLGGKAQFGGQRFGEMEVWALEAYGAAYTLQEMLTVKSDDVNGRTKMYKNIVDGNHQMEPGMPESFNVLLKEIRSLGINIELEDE
T1 sequence (P00579 whole entry, further chain): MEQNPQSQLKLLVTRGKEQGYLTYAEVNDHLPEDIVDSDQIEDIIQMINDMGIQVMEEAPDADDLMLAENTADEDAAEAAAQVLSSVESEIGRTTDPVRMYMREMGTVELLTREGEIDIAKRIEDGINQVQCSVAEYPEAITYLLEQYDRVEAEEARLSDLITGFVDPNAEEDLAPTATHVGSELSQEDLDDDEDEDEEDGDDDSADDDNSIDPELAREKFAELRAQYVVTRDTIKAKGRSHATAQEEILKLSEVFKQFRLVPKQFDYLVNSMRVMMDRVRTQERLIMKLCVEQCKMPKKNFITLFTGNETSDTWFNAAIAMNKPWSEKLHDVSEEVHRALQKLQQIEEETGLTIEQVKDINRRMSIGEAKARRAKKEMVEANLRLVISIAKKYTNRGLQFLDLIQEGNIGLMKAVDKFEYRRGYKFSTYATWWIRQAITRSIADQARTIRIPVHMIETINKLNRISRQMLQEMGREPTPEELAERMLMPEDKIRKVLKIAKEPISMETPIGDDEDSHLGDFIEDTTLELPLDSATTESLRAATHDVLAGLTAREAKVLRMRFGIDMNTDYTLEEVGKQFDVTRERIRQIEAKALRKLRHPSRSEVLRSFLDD
T1 sequence (P0A8T7 whole entry): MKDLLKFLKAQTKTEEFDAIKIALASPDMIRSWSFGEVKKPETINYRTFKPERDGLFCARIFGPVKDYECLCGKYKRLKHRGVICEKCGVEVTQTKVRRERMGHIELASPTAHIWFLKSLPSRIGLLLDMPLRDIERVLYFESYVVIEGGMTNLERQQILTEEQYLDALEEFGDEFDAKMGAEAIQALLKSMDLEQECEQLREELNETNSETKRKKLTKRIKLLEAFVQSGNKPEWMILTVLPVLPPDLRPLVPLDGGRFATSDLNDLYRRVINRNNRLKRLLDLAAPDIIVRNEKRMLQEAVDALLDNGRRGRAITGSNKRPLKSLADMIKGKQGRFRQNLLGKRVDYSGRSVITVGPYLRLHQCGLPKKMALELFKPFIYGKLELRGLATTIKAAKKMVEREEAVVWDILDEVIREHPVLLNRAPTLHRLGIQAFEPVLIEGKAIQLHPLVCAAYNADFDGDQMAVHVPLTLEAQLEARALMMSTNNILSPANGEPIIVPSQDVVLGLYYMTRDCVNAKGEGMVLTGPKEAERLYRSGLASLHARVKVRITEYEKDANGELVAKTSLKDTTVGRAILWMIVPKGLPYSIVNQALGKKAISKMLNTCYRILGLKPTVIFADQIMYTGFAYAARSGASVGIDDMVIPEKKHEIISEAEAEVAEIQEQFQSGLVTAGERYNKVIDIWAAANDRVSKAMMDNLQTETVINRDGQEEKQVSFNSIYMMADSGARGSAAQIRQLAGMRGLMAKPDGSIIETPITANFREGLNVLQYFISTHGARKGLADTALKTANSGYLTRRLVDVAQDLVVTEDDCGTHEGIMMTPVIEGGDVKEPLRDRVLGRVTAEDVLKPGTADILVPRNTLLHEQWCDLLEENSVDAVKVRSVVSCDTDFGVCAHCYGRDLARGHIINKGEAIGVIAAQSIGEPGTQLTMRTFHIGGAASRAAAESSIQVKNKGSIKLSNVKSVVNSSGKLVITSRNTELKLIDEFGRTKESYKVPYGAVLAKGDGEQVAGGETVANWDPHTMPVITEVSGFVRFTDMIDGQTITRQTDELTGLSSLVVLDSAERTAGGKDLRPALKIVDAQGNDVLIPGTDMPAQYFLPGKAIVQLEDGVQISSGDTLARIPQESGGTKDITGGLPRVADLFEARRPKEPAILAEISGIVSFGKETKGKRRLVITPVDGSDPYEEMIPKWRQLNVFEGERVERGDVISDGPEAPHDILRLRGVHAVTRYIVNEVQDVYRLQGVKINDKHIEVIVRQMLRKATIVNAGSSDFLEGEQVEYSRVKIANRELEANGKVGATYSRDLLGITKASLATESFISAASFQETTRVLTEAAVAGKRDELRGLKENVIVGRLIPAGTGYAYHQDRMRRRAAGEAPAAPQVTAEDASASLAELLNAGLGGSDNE
T1 sequence (P0A800 whole entry, further chain): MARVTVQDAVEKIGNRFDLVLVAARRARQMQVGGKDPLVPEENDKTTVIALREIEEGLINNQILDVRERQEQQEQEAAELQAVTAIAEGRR
Experimental: All reactions contain 40019 in plasmid form at 2.66 nM, and the reaction is done in E. coli extract “eZS6” at 25% lysate, 75% buffer concentration, prepared as listed in (Sun et al., 2013) or “eAC15” at 30% lysate, 70% buffer concentration. GFP concentration was kept at 2 nM, and the other components kept at a total of 6 nM to control for competition affects.
These are run in a E. coli-based cell-free lysate system in different concentrations, as listed by nM concentrations described in the chart, with all reactions containing 4 nM sigma70-UTR1-GFP and 3.5 μM gamS to protect linear templates.
Our expression system incorporates these coding sequences individually with a sigma70 promoter, UTR and terminator. […] A GFP construct (40019 in linear) was assembled in the same way. Linear DNAs were generated either by PCR amplification from plasmid or the DNA assemblies themselves. We used 3.5 μM GamS to prevent template degradation in E. coli lysate. Reactions were run at 10 μl scale in a 384-well format. The reaction is done in E. coli extract “eZS6” at 25% lysate, 75% buffer concentration, prepared as listed in (Sun et al., 2013). Timecourses of GFP intensity were taken, and 12 hr endpoints were used to generate the heatmap. GFP intensity of lasso-cluster-containing reaction was normalized to their paired negative controls.
We expressed our GFP construct in the same reactions as our lasso constructs. GFP (4009 in linear) was expressed at 4 nM and the lasso cluster genes at 0.6 nM.
Data set [4] concerns E. coli. To be noted: cited from earlier work.
Data set [5] relates to Salmonella. Particulars: mouse models; cited from earlier work.
The target of data set [6] is T1, E. coli RNA polymerase. To be noted: has been shown previously; cited from earlier work.
Data set [7] is classed as in vitro ADME, E. coli. The method, then:
Linear constructs were expressed in 10 μl cell free reactions with 2% flurotect (a tRNA carrying a BODIPY labelled lysine) and 8 nM DNA constructs for MBP-A or MBP (1065, 1066). 2 μl of these reactions were prepared in 20 μl sample buffer (50 mM bis-Tris, 2% SDS, 10% glycerol) and run on a 4-12% bis-tris PAGE gel (ThermoFisher Scientific) at 200V for 20 min.
To stabilize mcjA, the peptide can be tagged either on the N terminus or the C terminus as a fusion protein that provides a stable domain that prevents proteolysis of mcjA. A linker and/or targeting region can be added to remove the tag. In an example, we tag mcjA with a maltose binding protein (MBP), generating a construct 1065 (SEQ ID NO.: 19) and compare the expression of 1065 to a wildtype MBP, 1066 (SEQ ID NO.: 20). In a SDS-PAGE gel expressing both constructs in FIG. 18, the expressed fusion protein was stable and easily visualized on a gel.

Converted amounts (≈) assume the structure as drawn. Where two headings read alike, the source gives them in different places. Where a SMILES comes first, the peptide text is derived from it. Bridges are numbered along the chain shown (N, C = ends).

In the case of `CC[C@H](C)[C@H](NC(=O)CNC(=O)[C@@H](NC(=O)[C@H](Cc1ccccc1)NC(=O)[C@H](Cc1ccc(O)cc1)NC(=O)[C@@H]1CCC(=O)NCC(=O)NCC(=O)N[C@@H](C)C(=O)NCC(=O)N[C@@H](Cc2cnc[nH]2)C(=O)N[C@@H](C(C)C)C(=O)N2CCC[C@H]2C(=O)N1)C(C)C)C(=O)NCC(=O)N[C@H](C(=O)N1CCC[C@H]1C(=O)N[C@H](C(=O)N[C@@H](CO)C(=O)N[C@@H](Cc1ccccc1)C(=O)N[C@@H](Cc1ccc(O)cc1)C(=O)NCC(=O)O)[C@@H](C)CC)[C@@H](C)O` [microcin J25] (GGAGHVPEYFVGIGTPISFYG-OH; lactam N-8), the heat stability result in data set [1] was “heat-stable”.
A word on the MIC: it is the least concentration at which growth counts as inhibited. For the compound `CC[C@H](C)[C@H](NC(=O)CNC(=O)[C@@H](NC(=O)[C@H](Cc1ccccc1)NC(=O)[C@H](Cc1ccc(O)cc1)NC(=O)[C@@H]1CCC(=O)NCC(=O)NCC(=O)N[C@@H](C)C(=O)NCC(=O)N[C@@H](Cc2c[nH]cn2)C(=O)N[C@@H](C(C)C)C(=O)N2CCC[C@H]2C(=O)N1)C(C)C)C(=O)NCC(=O)N[C@H](C(=O)N1CCC[C@H]1C(=O)N[C@H](C(=O)N[C@@H](CO)C(=O)N[C@@H](Cc1ccccc1)C(=O)N[C@@H](Cc1ccc(O)cc1)C(=O)NCC(=O)O)[C@@H](C)CC)[C@@H](C)O` [microcin J25] (GGAGHVPEYFVGIGTPISFYG-OH; lactam N-8; C-terminus assumed), the minimal inhibitory concentration (MIC) in data set [2] was 0.1 µM (≈ 0.211 µg/mL); in data set [4], 0.02 µg/mL (≈ 9.49 nM). Further, the “knockdown of GFP expression / native RNA polymerase” value in data set [3] is recorded as “knocks down GFP expression”; in data set [3] (listed as microcinJ25), “functional knockdown”. In addition, in data set [5], the “decrease in Salmonella infection” value was 3 fold.
On to caulosegnin, for which the “RNA polymerase inhibitory activity” value in data set [6] was “not to have RNA polymerase inhibitory activity”. In addition, the “knockdown of GFP expression / native RNA polymerase” value in data set [3] is on record as “no effect on GFP expression”.
For klebsidin, the “knockdown of GFP expression / native RNA polymerase” value in data set [3] was “functional knockdown”.
Take “mcjA: peptide precursor (propeptide) of microcin J25 (MIKHFHFNKLSSGKKNNVPSPAKGVIQIKKSASQLTKGGAGHVPEYFVGIGTPISFYG; full-length; UniProt Q9X2V7 1-58, looked up)”: the “stability when expressed in E. coli cell-free systems” value in data set [7] is “known to degrade”.

Values taken from patent US20200109429A1, “Methods and Systems for Cell-Free Biodiscovery of Natural Products” (Synvitrobio, Inc., priority 2017, published 2020).
